# Measured values reported in patent US10159685B2, “Vascular calcification” (Cambridge Enterprise Limited, priority 2016, dated 2018).
# Key:
# [1] = system: bovine vascular smooth muscle cells (bVSMCs); test: MTT cell viability assay, bVSMCs with or without GAD medium, 7 or 9 days (Example 5); type: cell-based
# Experimental: As above, cells were treated either with medium only (“no-additions”; NA)+/−inhibitors, or with the GAD-medium+/−inhibitors. […] Additionally, an MTT assay was performed as a measure of cell viability/proliferation. Bovine VSMCs were seeded in 96 well plates and cultured in M199/20% FCS for 1 day. Then, the cells were incubated with inhibitor concentrations of 10 μM, 1 μM and 0.1 μM (in M199 medium+5% FBS). […] Then, the MTT assay was performed.
# [2] = system: bovine vascular smooth muscle cells (bVSMCs); type: cell-based; conditions: at the concentrations tested (0.5 to 100 μM), 7 days
# Experimental: The toxicity of the identified compounds to bovine VSMCs was measured using the MTT assay, which measures the activity of dehydrogenase enzymes of live cells. This assay can pick up both cell death and proliferation.
# Bovine VSMCs were seeded in 96 well plates and cultured in M199/20% FCS for 1 day. Then, the cells were incubated with inhibitor concentrations from 0.5 to 100 μM (in M199 medium+5% FBS). The cells were incubated with the inhibitors for 7 days; every 2-3 days the medium −/+inhibitors was exchanged. Then, the MTT assay was performed. The stock vehicle DMSO was tested at corresponding concentrations to the inhibitors at 0.1% DMSO or less.
# [3] = system: bovine vascular smooth muscle cells (bVSMCs); test: o-Cresolphthalein Ca2+ assay, bVSMC GAD calcification model (Examples 4 and 5); type: cell-based
# Experimental: For the bVSMCs a GAD medium (10 mM β-glycerophosphate/0.1 mM L-ascorbic acid-2-phosphate/10 nM dexamethasone) model was used to induce mineralization in bVSMCs. Accordingly, cells were seeded in tissue culture plates using M199/20% FCS culture medium and cultured overnight. The next day, cells were treated either with medium only (M199/5% FBS)+/−inhibitors, or with the GAD-medium (10 mM β-glycerophosphate/0.1 mM L-ascorbic acid-2-phosphate/[…] dexamethasone)+/−inhibitors.
# Medium+/−inhibitors was exchanged every 2-3 days. […]
# The o-Cresolphthalein assay is a spectrophotometric method for measuring Ca^2+-concentrations in cell/tissue lysates. Following the calcification experiments, cells are briefly washed to remove medium and 100 […]1 of 0.1 N HCl is added to each well to dissolve any mineral deposits. Then, the Ca^2+-concentration of the samples is measured spectrophotometrically (at 570 nm) in the o-cresolphthalein assay with the help of a CaCl2 standard curve in a concentration range of ˜0.02-270 µg Ca^2+/ml.
# The commercial BioRad DC protein assay is based on the Lowry method, aka reaction of proteins with a copper-tartrate complex and subsequent reaction with Folin's reagent. Following the calcification experiment, cells are briefly washed to remove medium and 100 µl of solubilisation solution (0.1 M NaOH/1% SDS/DIW) is added to each well to lyse the cells. The protein concentrations of the lysates are subsequently determined in the BioRad DC assay as per supplier's instructions using BSA (bovine serum albumin) as standard.
# The in vitro model is the same as the model used in example 4; bovine vascular smooth muscle cells (bVSMCs) cultured so that they produce extracellular matrix, with the addition of the GAD medium (10 mM β-glycerophosphate/0.1 mM L-ascorbic acid-2-phosphate/10 nM dexamethasone).
# As above, cells were treated either with medium only (“no-additions”; NA)+/−inhibitors, or with the GAD-medium+/−inhibitors. The inhibitors used were PJ34 and minocyclin (MC) at 10 μM, 1 μM and 0.1 μM.
# The methodology was the same as that described in example 4.
# [4] = cited from earlier work
# [5] = human, in vivo
smiles,measurement,setting,value
CN(C)c1ccc(O)c2c1C[C@H]1C[C@H]3[C@H](N(C)C)C(O)=C(C(N)=O)C(=O)[C@@]3(O)C(O)=C1C2=O [minocycline],Cell viability (%) mean,"[1]; nine days, no GAD, 1 μM",96.64%
same,Cell viability (%) mean,"[1]; nine days, no GAD, 10 μM",105.1%
same,Cell viability (%) mean,"[1]; nine days, with GAD, 0.1 μM",74.53%
same,Cell viability (%) mean,"[1]; nine days, with GAD, 1 μM",72.42%
same,Cell viability (%) mean,"[1]; nine days, with GAD, 10 μM",105.89%
same,Drop off in formazan production (MTT) in the GAD-treatment group,"[1]; nine days, with GAD, 10 μM",not observed
same,Cell viability (%) mean,"[1]; seven days, no GAD, 0.1 μM",94.56%
same,Cell viability (%) mean,"[1]; seven days, no GAD, 1 μM",91.09%
same,Cell viability (%) mean,"[1]; seven days, no GAD, 10 μM",95.49%
same,Cell viability (%) mean,"[1]; seven days, with GAD, 1 μM",96.84%
same,Cell viability (%) mean,"[1]; seven days, with GAD, 10 μM",102.07%
same,"Toxicity to bVSMCs (MTT assay, in words)",[2],non-toxic
same,inhibition at 1 µM,"[3]; Bos taurus, 216 h, bVSMCs, GAD medium, nine days, 1 μM, read-out: Reduction of Ca^2+ deposition compared to no potential inhibitor",~38%
same,inhibition at 10 µM,"[3]; Bos taurus, 216 h, bVSMCs, GAD medium, nine days, 10 μM, read-out: Reduction of Ca^2+ deposition compared to no potential inhibitor",~81%
same,Concentration at which calcification is inhibited (as low as),"[3]; bVSMC GAD model, Example 5",1 µM
same,"Ca^2+ concentration found in bVSMCs, mean","[3]; nine days, no GAD, 0.1 μM",1.484 μg calcium/ml
same,"Ca^2+ concentration found in bVSMCs, mean","[3]; nine days, no GAD, 1 μM",1.327 μg calcium/ml
same,"Ca^2+ concentration found in bVSMCs, mean","[3]; nine days, no GAD, 10 μM",0.925 μg calcium/ml
same,"Ca^2+ concentration found in bVSMCs, mean","[3]; nine days, with GAD, 0.1 μM",26.16 μg calcium/ml
same,"Ca^2+ concentration found in bVSMCs, mean","[3]; nine days, with GAD, 1 μM",21.35 μg calcium/ml
same,"Ca^2+ concentration found in bVSMCs, mean","[3]; nine days, with GAD, 10 μM",3.74 μg calcium/ml
same,"Ca^2+ concentration found in bVSMCs, mean","[3]; seven days, no GAD, 0.1 μM",0.654 μg calcium/ml
same,"Ca^2+ concentration found in bVSMCs, mean","[3]; seven days, no GAD, 1 μM",0.595 μg calcium/ml
same,"Ca^2+ concentration found in bVSMCs, mean","[3]; seven days, no GAD, 10 μM",0.523 μg calcium/ml
same,"Ca^2+ concentration found in bVSMCs, mean","[3]; seven days, with GAD, 0.1 μM",1.79 μg calcium/ml
same,"Ca^2+ concentration found in bVSMCs, mean","[3]; seven days, with GAD, 1 μM",2 μg calcium/ml
same,"Ca^2+ concentration found in bVSMCs, mean","[3]; seven days, with GAD, 10 μM",2.38 μg calcium/ml
same,maximum concentration (Cmax) in a patient's bloodstream,[4]; 50 mg oral dose,0.65 micrograms/mL
same,half-life in the body,[4]; in vivo,approximately 12 hours
same,dosage needed to reach the concentration of 0.46 micrograms/mL,[5],approximately 20 mg
